Assay results published in PMC13626384 (Journal of medicinal chemistry, 2025).
Where two headings read alike, the source gives them in different places.

Legend:
D283-med cell line = assay: Cytotoxicity against D283-med cells; format: cell-based, human
SF188 cell line = assay: Cytotoxicity against SF188 cells; format: cell-based, human
[1] = PAMPA-BBB permeability assay
H460 cell line = assay: Cytotoxicity against H460 cells; format: cell-based; conditions: read-out: H460 IC50; non-small cell lung cancer cell line
[2] = Homo sapiens, D283 Med, read-out: D283-med IC50, medulloblastoma cell line
[3] = Homo sapiens, SF-188, read-out: SF188 IC50, glioblastoma cell line
[4] = read-out: D283-med IC50, medulloblastoma cell line
[5] = read-out: SF188 IC50, glioblastoma cell line

## CCCCCC(=O)N[C@H](C(=O)NC(CSc1c(F)c(F)c(F)c(F)c1F)C(=O)N[C@@H](CC(C)C)C(=O)[C@@]1(C)CO1)C(C)C (stereo in doubt) [Compound 1, N-((S)-3-Methyl-1-(((S)-1-(((S)-4-methyl-1-((R)-2-methyloxiran-2-yl)-1-oxopentan-2-yl)amino)-1-oxo-3-((perfluorophenyl)thio)propan-2-yl)amino)-1-oxobutan-2-yl)hexanamide]
D283-med cell line; [2]
  IC50: 236 ± 27 nM
SF188 cell line; [3]
  IC50: 143 ± 18 nM
[1]; PAMPA-BBB
  Mean Permeability: 0.63 10^−6 cm/sec

## CC(C)C[C@H](NC(=O)C(CSc1c(F)c(F)c(F)c(F)c1F)NC(=O)[C@@H](NC(=O)Cc1c(F)c(F)c(F)c(F)c1F)C(C)C)C(=O)[C@@]1(C)CO1 (stereo in doubt) [Compound 3, (S)-3-Methyl-N-((S)-1-(((S)-4-methyl-1-((R)-2-methyloxiran-2-yl)-1-oxopentan-2-yl)amino)-1-oxo-3-((perfluorophenyl)thio)propan-2-yl)-2-(2-(perfluorophenyl)acetamido)butanamide]
D283-med cell line; [2]
  IC50: 102 ± 7 nM
SF188 cell line; [3]
  IC50: 213 ± 10 nM

## CCCCCC(=O)N[C@H](C(=O)N[C@@H](CCS(C)(=O)=O)C(=O)N[C@@H](CC(C)C)C(=O)[C@@]1(C)CO1)C(C)C [Carmaphycin B, reference compound]
D283-med cell line; [4]
  IC50: 13 ± 2 nM
SF188 cell line; [5]
  IC50: 19 ± 2 nM
H460 cell line
  IC50: 111 ± 30 nM

## CC(C)C[C@H](NC(=O)[C@@H](CSc1c(F)c(F)c(F)c(F)c1F)NC(=O)Cc1c(F)c(F)c(F)c(F)c1F)C(=O)[C@@]1(C)CO1 [Compound 5, (S)-N-((S)-4-Methyl-1-((R)-2-methyloxiran-2-yl)-1-oxopentan-2-yl)-2-(2-(perfluorophenyl)acetamido)-3-((perfluorophenyl)thio)propenamide]
D283-med cell line; [4]
  IC50: > 10000 nM
SF188 cell line; [5]
  IC50: > 10000 nM
H460 cell line
  IC50: > 10000 nM

## CC(C)C[C@H](NC(=O)[C@@H](CSc1c(F)c(F)c(F)c(F)c1F)NC(=O)c1cc(Cl)ccc1Cl)C(=O)[C@@]1(C)CO1 [Compound 6, 2,5-Dichloro-N-((S)-1-(((S)-4-methyl-1-((R)-2-methyloxiran-2-yl)-1-oxopentan-2-yl)amino)-1-oxo-3-((perfluorophenyl)thio)propan-2-yl)benzamide]
D283-med cell line; [2]
  IC50: > 10000 nM
SF188 cell line; [3]
  IC50: 4080 ± 770 nM

## CC(C)C[C@H](NC(=O)CNC(=O)Cc1c(F)c(F)c(F)c(F)c1F)C(=O)[C@@]1(C)CO1 [Compound 7, N-((S)-4-Methyl-1-((R)-2-methyloxiran-2-yl)-1-oxopentan-2-yl)-2-(2-(perfluorophenyl)acetamido)acetamide]
D283-med cell line; [2]
  IC50: > 10000 nM
SF188 cell line; [3]
  IC50: > 10000 nM

## CC(C)C[C@H](NC(=O)CNC(=O)c1cc(Cl)ccc1Cl)C(=O)[C@@]1(C)CO1 [Compound 8, 2,5-Dichloro-N-(2-(((S)-4-methyl-1-((R)-2-methyloxiran-2-yl)-1-oxopentan-2-yl)amino)-2-oxoethyl)benzamide]
D283-med cell line; [2]
  IC50: 3700 ± 270 nM
SF188 cell line; [3]
  IC50: 532 ± 23 nM

## CC(C)C[C@H](NC(=O)[C@@H]1Cc2c(F)c(F)c(c(F)c2F)Sc2ccc(cc2)CC(=O)N[C@@H](C(C)C)C(=O)N1)C(=O)[C@@]1(C)CO1 [Compound 9, (5S,8S)-3^2,3^3,3^5,3^6-Tetrafluoro-8-isopropyl-N-((S)-4-methyl-1-((R)-2-methyloxiran-2-yl)-1-oxopentan-2-yl)-7,10-dioxo-2-thia-6,9-diaza-1,3(1,4)-dibenzenacycloundecaphane-5-carboxamide]
SF188 cell line; [5]
  IC50: 87 nM
H460 cell line
  IC50: 754 nM

## CC(C)C[C@H](NC(=O)[C@@H]1Cc2c(F)c(F)c(c(F)c2F)Sc2cccc(c2)CC(=O)N[C@@H](C(C)(C)C)C(=O)N1)C(=O)[C@@]1(C)CO1 [Compound 12, (5S,8S)-8-(Tert-butyl)-3^2,3^3,3^5,3^6-tetrafluoro-N-((S)-4-methyl-1-((R)-2-methyloxiran-2-yl)-1-oxopentan-2-yl)-7,10-dioxo-2-thia-6,9-diaza-1(1,3),3(1,4)-dibenzenacycloundecaphane-5-carboxamide]
D283-med cell line; [4]
  IC50: 432 ± 74 nM
SF188 cell line; [5]
  IC50: 507 ± 134 nM
H460 cell line
  IC50: 2470 nM

## CC(C)C[C@H](NC(=O)[C@@H]1Cc2c(F)c(F)c(c(F)c2F)Sc2cccc(c2)CC(=O)N2C[C@H]3[C@@H]([C@H]2C(=O)N1)C3(C)C)C(=O)[C@@]1(C)CO1 [Compound 13, (61S,64S,65R,9S)-1^2,1^3,1^5,1^6-Tetrafluoro-6^6,6^6-dimethyl-N-((S)-4-methyl-1-((R)-2-methyloxiran-2-yl)-1-oxopentan-2-yl)-5,7-dioxo-2-thia-6^3,8-diaza-6(3,4)-bicyclo[3.1.0]hexana-1(1,4),3(1,3)-dibenzenacyclodecaphane-9-carboxamide]
D283-med cell line; [4]
  IC50: > 15000 nM
SF188 cell line; [5]
  IC50: > 15000 nM
H460 cell line
  IC50: > 15000 nM

## CC(C)C[C@H](NC(=O)[C@@H]1Cc2c(F)c(F)c(c(F)c2F)Sc2cccc(c2)CC(=O)N[C@H](C(C)C)CC(=O)N1)C(=O)[C@@]1(C)CO1 [Compound 16, (5S,9S)-3^2,3^3,3^5,3^6-Tetrafluoro-9-isopropyl-N-((S)-4-methyl-1-((R)-2-methyloxiran-2-yl)-1-oxopentan-2-yl)-7,11-dioxo-2-thia-6,10-diaza-1(1,3),3(1,4)-dibenzenacyclododecaphane-5-carboxamide]
D283-med cell line; [4]
  IC50: 6090 nM
SF188 cell line; [5]
  IC50: > 15000 nM
H460 cell line
  IC50: > 15000 nM

## CC(C)C[C@H](NC(=O)[C@@H]1Cc2c(F)c(F)c(c(F)c2F)Sc2cccc(c2)CC(=O)N[C@@H](C(C)C)CC(=O)N1)C(=O)[C@@]1(C)CO1 [Compound 17, (5S,9R)-3^2,3^3,3^5,3^6-Tetrafluoro-9-isopropyl-N-((S)-4-methyl-1-((R)-2-methyloxiran-2-yl)-1-oxopentan-2-yl)-7,11-dioxo-2-thia-6,10-diaza-1(1,3),3(1,4)-dibenzenacyclododecaphane-5-carboxamide]
D283-med cell line; [4]
  IC50: 1800 nM
SF188 cell line; [5]
  IC50: 2460 nM
H460 cell line
  IC50: 5380 nM

## CC(C)C[C@H](NC(=O)[C@@H]1Cc2c(F)c(F)c(c(F)c2F)Sc2cccc(c2)CC(=O)N(C)[C@@H](C(C)C)C(=O)N1)C(=O)[C@@]1(C)CO1 [Compound 19, (5S,8S)-3^2,3^3,3^5,3^6-Tetrafluoro-8-isopropyl-9-methyl-N-((S)-4-methyl-1-((R)-2-methyloxiran-2-yl)-1-oxopentan-2-yl)-7,10-dioxo-2-thia-6,9-diaza-1(1,3),3(1,4)-dibenzenacycloundecaphane-5-carboxamide]
D283-med cell line; [4]
  IC50: 10800 nM
SF188 cell line; [5]
  IC50: 12300 nM
H460 cell line
  IC50: > 15000 nM

## CC(C)C[C@H](NC(=O)[C@@H]1Cc2c(F)c(F)c(c(F)c2F)Sc2cccc(c2)CC(=O)NC(C)(C)C(=O)N1)C(=O)[C@@]1(C)CO1 [Compound 20, (S)-3^2,3^3,3^5,3^6-Tetrafluoro-8,8-dimethyl-N-((S)-4-methyl-1-((R)-2-methyloxiran-2-yl)-1-oxopentan-2-yl)-7,10-dioxo-2-thia-6,9-diaza-1(1,3),3(1,4)-dibenzenacycloundecaphane-5-carboxamide]
D283-med cell line; [4]
  IC50: 662 ± 44 nM
SF188 cell line; [5]
  IC50: 611 ± 85 nM
H460 cell line
  IC50: 828 ± 57 nM

## CC(C)C[C@H](NC(=O)[C@@H]1Cc2c(F)c(F)c(c(F)c2F)Sc2cccc(c2)CC(=O)NCC(=O)N1)C(=O)[C@@]1(C)CO1 [Compound 21, (S)-32,33,35,36-Tetrafluoro-N-((S)-4-methyl-1-((R)-2-methyloxiran-2-yl)-1-oxopentan-2-yl)-7,10-dioxo-2-thia-6,9-diaza-1(1,3),3(1,4)-dibenzenacycloundecaphane-5-carboxamide]
D283-med cell line; [4]
  IC50: 5000 nM
SF188 cell line; [5]
  IC50: > 15000 nM
H460 cell line
  IC50: > 15000 nM

## Cc1ncc2n1-c1ccc(Cl)cc1C(c1ccccc1F)=NC2 [Midazolam, reference compound]
[1]; PAMPA
  Papp: 6.8 ×10⁻⁶ cm/s
  recovery: 84%

## Cn1c(=O)c2[nH]cnc2n(C)c1=O [Theophylline, reference compound]
[1]; PAMPA, % Recovery, PAMPA-BBB
  recovery: 96%
